The test system of data set [1] is Human H460 NSCLC cells. In words: Oral efficacy in human non-small cell lung cancer xenografts. The data set is classed as in vivo, CD1-Nu/Nu female mice. To be noted: H460 xenograft; oral 100 mg/kg on day 8, 15, 22, 29; vs 5% dextrose or untreated. On the procedure:
Human H460 NSCLC cells were obtained from American Type Cell Culture (ATCC) (catalog no. HTB-177, Manassas, Va.). These cells tested negative for viral contamination using the Mouse Antibody Production (MAP) test, performed by Charles River Labs Molecular Division, upon the receipt of the tumor cells from ATCC. The tumor cells were maintained at 37° C. in a humidified 5% CO2 atmosphere in T225 tissue culture flasks containing 50 mL of Roswell Park Memorial Institute (RPMI)-1640 solution with 10% Fetal Bovine Serum (FBS) and 2 mM L-glutamine. Cells were split at a ratio of 1:10 every 2-3 days by trypsinization and resuspended in fresh medium in a new flask. Cells were harvested for experiments in the same way at 70-90% confluency.
CD1-Nu/Nu female mice, ˜4-6 weeks old were obtained from Charles River Laboratories. Mice were housed 5 to a cage in a micro-isolator room in the Department of Animal Laboratory Research of New York State University (SUNY) at Stony Brook. Light-dark cycles were 12 h each daily, with light from 7 a.m. to 7 p.m. […]
An acclimation period of 7 days was allowed between the arrival of the animal at the study site before tumor inoculation and experimentation. […] Tumor dimensions (length and width) were measured daily before, during and after treatment (using Vernier calipers) and the tumor volume was calculated using the prolate ellipsoid formula: (length× width^2)/2. […]

In data set [2] the test system is androgen-resistance prostate PC-3 cancer cells. In words: PC-3 flank model of androgen-resistant prostate cancer. To be noted: 2.5 mg/kg or 10 mg/kg, 2-3 times per week for five weeks. The format is in vivo.
For data set [3], the system named is BxPC3 pancreatic cancer cells. In words: Oral efficacy in human pancreatic cancer xenografts. To be noted: BxPC-3 xenograft; oral dose of 100 mg/week for 4 weeks; vs 5% dextrose or untreated. The data set is classed as in vivo, CD-1 nude mice. As for the experimental part:
An acclimation period of 7 days was allowed between the arrival of the animal at the study site before tumor inoculation and experimentation. Mice were inoculated subcutaneously (SC) in the right flank with 2×10^6 human H460 NSCLC or BxPC3 pancreatic cancer cells that were suspended in 0.1 mL of Dulbeco's Phosphate Buffered Salt (PBS) solution using a 1 cc syringe with a 27-5/8 gauge needle. Tumor dimensions (length and width) were measured daily before, during and after treatment (using Vernier calipers) and the tumor volume was calculated using the prolate ellipsoid formula: (length× width^2)/2. Treatment with test or control articles began 8 days post tumor cell implantation when the tumor was approximately 300 mm^3.
A similar study was conducted in CD-1 nude mice (n=9) inoculated with 2×10^6 BxPC-3 cells. The study was initiated when tumors reached an average size of 150 mm^3 (day 0) and CPI-613 was administered at an oral dose of 100 mg/week for 4 weeks. A comparator arm (n=9) was conducted with IP treatment at a weekly dose of 25 mg/kg.
(In general: In xenograft studies the graft and the host belong to different species.)

Data set [4] concerns RWPI-1. As to the kind of experiment: In vitro killing of prostate cancer cell lines, CellTiter 96 cell survival. The format is cell-based. The settings on record: 60 hrs in RPMI with 10% FBS. On the procedure: (§1) Cell survival was assayed with CellTiter 96® Aqueous One Solution Cell Proliferation Assay (Promega). EC50 values were calculated.
Data set [5] has as its system DU 145. The description is as above. To be noted: Homo sapiens, 60 hrs in RPMI with 10% FBS. The format is cell-based. As for the experimental part:
as §1

Data set [6] relates to PC-3. Described as above. The data set is classed as cell-based. The settings on record: Homo sapiens, 60 hrs in RPMI with 10% FBS. As for the experimental part: as §1
Data set [7] deals with 22RV1. The description is as above. The data set is classed as cell-based. The settings on record: Homo sapiens, 60 hrs in RPMI with 10% FBS. On the procedure: as §1
Data set [8] has as its system LnCap. Described as above. The data set is classed as cell-based. The settings on record: Homo sapiens, 60 hrs in RPMI with 10% FBS. On the procedure:
as §1

For data set [9] the following is noted: Pardee et al., Clin Cancer Res. 2014; cited from earlier work.

As a reminder, the EC50 is the concentration that produces a half-maximal response. A higher EC50 goes with lower potency in that assay. In the case of `O=C(O)CCCCC(CCSCc1ccccc1)SCc1ccccc1` (centres unmarked), the Tumor growth entry in [1] is reported as “grew much more slowly”; in [3] it was “especially pronounced”. In addition, the Toxicity result in data set [2] was “without toxicity”. Further, the “Survival of the mice” value in [2] (vs saline control) is “increased survival”. Further, the “Tumor growth (tumor volume over time)” value in data set [2] (vs saline control) is on record as “significantly slower”. Besides, the EC50 turned out to be 147 µM in data set [4]; 99 µM in [5]; 202 µM in data set [6]; 175 µM in [7]; 114 µM in data set [8]. For the same compound, the “half-life after IV dosing” value in [9] was 1 to 2 h.

(Values after patent publication US20210000778A1.)
